The values below come from patent publication US8304428B2, “Compounds and methods for inhibiting the interaction of BCL proteins with binding partners” (Infinity Discovery, Inc., priority 2005, dated 2012).

Structures are written as SMILES.

Chain of Bcl-2 (P10415 whole entry): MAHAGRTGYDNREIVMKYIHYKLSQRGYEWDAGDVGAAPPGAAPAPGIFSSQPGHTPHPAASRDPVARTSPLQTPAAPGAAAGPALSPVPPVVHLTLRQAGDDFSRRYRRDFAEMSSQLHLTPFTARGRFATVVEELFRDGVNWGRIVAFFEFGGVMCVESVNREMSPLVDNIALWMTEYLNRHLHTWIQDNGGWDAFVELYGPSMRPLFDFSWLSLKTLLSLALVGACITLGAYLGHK

The target in the assay is Bcl-2 (Homo sapiens, UniProt P10415). In words: Bcl-2 binding affinity analysis (fluorescence polarization binding assay). An excerpt:
Bcl-2 and Bcl-xL binding can be determined using a variety of known methods. One such assay is a sensitive and quantitative in vitro binding assay using fluorescence polarization (FP) described by Wang, J.-L.; Zhang, Z-J.; Choksi, S.; Sjam. S.; Lu, Z.; Croce, C. M.; Alnemri, E. S.; Komgold, R.; Huang, Z. Cell permeable Bcl-2 binding peptides: a chemical approach to apoptosis induction in tumor cells. Cancer Res. 2000, 60, 1498-1502).
Bcl-2 binding affinity analysis data is presented below for various compounds of the invention.
A general note: Polarisation of emitted light reports the rotation of a fluorescent probe.
The molecule `COc1c(CN2C[C@H](O)[C@@H]([C@H](C)O)[C@H]2C(=O)NC2C[C@H]3C[C@@H]([C@@H]2C)C3(C)C)cccc1-c1cc(C(=O)NCCc2ccccc2)cc(N(C)C)c1` (stereo partly drawn) [Compound 1] gave a Ki below 100 nM.
Molecule `COc1c(CN2CCC[C@H]2C(=O)N[C@H]2C[C@H]3C[C@@H]([C@@H]2C)C3(C)C)cccc1-c1cc(C(=O)N[C@@H](Cc2ccccc2)CN(C)C)cc([N+](=O)[O-])c1` [Compound 13] returned a Ki above 50000 nM.
The value for `COc1c(CN2CCC[C@@H]2C(=O)N[C@H]2C[C@H]3C[C@@H]([C@@H]2C)C3(C)C)cccc1-c1cc(C(=O)N[C@@H](Cc2ccccc2)CN(C)C)cc([N+](=O)[O-])c1` [Compound 18] was 300 to 50000 nM; that for `CCN1CCC[C@@H]1CNC(=O)c1cc(-c2cccc(CN3C[C@H](O)[C@@H]([C@H](C)O)[C@H]3C(=O)NC3C[C@H]4C[C@@H]([C@@H]3C)C4(C)C)c2OC)cc(N(C)C)c1` (stereo partly drawn) [Compound 23] was below 100 nM.
On to `C[C@H](O)[C@H]1[C@@H](C(=O)NC2C[C@H]3C[C@@H]([C@@H]2C)C3(C)C)N(Cc2cccc(-c3ccc(C(=O)N(C)C)cc3)c2)C[C@@H]1O` (stereo partly drawn) [Compound 24], for which the Ki was above 50000 nM.
`COc1c(CN2CC[C@H](O)[C@H]2C(=O)N[C@H]2C[C@H]3C[C@@H]([C@@H]2C)C3(C)C)cccc1-c1cc(C(=O)N[C@@H](Cc2ccccc2)CN(C)C)cc(N(C)C)c1` [Compound 26] showed a Ki below 100 nM.
In the case of `COc1c(CN2CSC[C@H]2C(=O)N[C@H]2C[C@H]3C[C@@H]([C@@H]2C)C3(C)C)cccc1-c1cc(C(=O)N[C@@H](Cc2ccccc2)CN(C)C)cc(N(C)C)c1` [Compound 33] it was below 100 nM; in that of `COc1c(CN2CSC(C)(C)[C@H]2C(=O)N[C@H]2C[C@H]3C[C@@H]([C@@H]2C)C3(C)C)cccc1-c1cc(C(=O)N[C@@H](Cc2ccccc2)CN(C)C)cc(N(C)C)c1` [Compound 34], below 100 nM.
The molecule `COc1c(CN2C[C@H](N)C[C@H]2C(=O)N[C@H]2C[C@H]3C[C@@H]([C@@H]2C)C3(C)C)cccc1-c1cc(C(=O)N[C@@H](Cc2ccccc2)CN(C)C)cc(N(C)C)c1` [Compound 35] returned a Ki below 100 nM.
For the molecule `COc1c(CN2C[C@@H](N)C[C@H]2C(=O)N[C@H]2C[C@H]3C[C@@H]([C@@H]2C)C3(C)C)cccc1-c1cc(C(=O)N[C@@H](Cc2ccccc2)CN(C)C)cc(N(C)C)c1` [Compound 36], the Ki is below 100 nM.
In turn, `COc1c(CN2CCCC[C@H]2C(=O)N[C@H]2C[C@H]3C[C@@H]([C@@H]2C)C3(C)C)cccc1-c1cc(C(=O)N[C@@H](Cc2ccccc2)CN(C)C)cc(N(C)C)c1` [Compound 37] came in with a Ki above 50000 nM.
As for `COc1c(CN2CCOC[C@H]2C(=O)N[C@H]2C[C@H]3C[C@@H]([C@@H]2C)C3(C)C)cccc1-c1cc(C(=O)N[C@@H](Cc2ccccc2)CN(C)C)cc(N(C)C)c1` [Compound 38], the Ki is 300 to 50000 nM.

The term Ki denotes the dissociation constant of the complex between target and ligand, obtained from inhibition or displacement. A high value points to a looser hold on the target.
